The results in this text go back to ChEMBL document CHEMBL3430912, “GSK Tres Cantos Anti-Kinetoplastid Screening (TCAKS) Data”.

Series [1] deals with Trypanosoma cruzi. In words: GSK_TCAKS: pIC50 Trypanosoma cruzi viability assay using beta-GAL activity. This assay was run at single shot at 5uM compound concentration per well. The biological reagents consisted of NIH-3T3 host cells and trypomastigotes parasitic cells; both cell types were set to a 3.3 * 10^5 cells/mL dilution in assay DMEM by means of a CASY cell counter device using a 60um capillary. 6 uL of the mixture were dispensed per well (about 1 * 10^3 host-cells and 1 * 10^3 parasites) with a Multidrop Combi dispenser. […] In all wells, the percentage of DMSO never exceeded 0.5%. Plates incubated for four days at 37C, 5% CO2. The substrate used for the assay fluorescence intensity (FLINT) readout was resorufin-beta-D-galactopiranoside (Sigma-Aldrich) at 5uM per well. It was diluted in PBS supplemented with the soft detergent Igepal (Fluka). It counts as functional, organism-based, Mus musculus. As to conditions: Tulahuen, NIH3T3.

Series [2] concerns Leishmania donovani. Nature of the series: GSK_TCAKS: pIC50 Leishmania donovani viability assay using fluorescence intensity. Assay plates (1536-well) were prepared by adding 30nL per well of compound. For single shot assay, the final compound concentration was 5uM. […] Briefly, eGFP LdBOB axenic amastigotes were harvested, fixed and counted in a CASY cell counter (Roche-Applied Science). A final concentration of 1.5 * 10^5 cells per well were prepared in amastigote media containing 500 U/mL penicillin/streptomycin (Invitrogen) and 6uL was dispensed to each experimental well using a Multidrop Combi dispenser (Thermo Scientific). 6uL of assay media was dispensed to control columns used as reference for 100% compound response. Following incubation for 72 h at 37C, 5% CO2, 2 uL of resazurin was added to each well at a final concentration of 0.5 mM in phosphate buffered saline (PBS) with IGEPAL (Sigma-Aldrich), 0.05% (v/v). It counts as functional, organism-based.

The target of series [3] is Sterol 14-alpha demethylase (Trypanosoma cruzi (strain CL Brener), UniProt Q7Z1V1). In words: GSK_TCAKS: pIC50 CYP51 from Trypanosoma cruzi. It counts as functional.
Chain of Sterol 14-alpha demethylase (Q7Z1V1 whole entry): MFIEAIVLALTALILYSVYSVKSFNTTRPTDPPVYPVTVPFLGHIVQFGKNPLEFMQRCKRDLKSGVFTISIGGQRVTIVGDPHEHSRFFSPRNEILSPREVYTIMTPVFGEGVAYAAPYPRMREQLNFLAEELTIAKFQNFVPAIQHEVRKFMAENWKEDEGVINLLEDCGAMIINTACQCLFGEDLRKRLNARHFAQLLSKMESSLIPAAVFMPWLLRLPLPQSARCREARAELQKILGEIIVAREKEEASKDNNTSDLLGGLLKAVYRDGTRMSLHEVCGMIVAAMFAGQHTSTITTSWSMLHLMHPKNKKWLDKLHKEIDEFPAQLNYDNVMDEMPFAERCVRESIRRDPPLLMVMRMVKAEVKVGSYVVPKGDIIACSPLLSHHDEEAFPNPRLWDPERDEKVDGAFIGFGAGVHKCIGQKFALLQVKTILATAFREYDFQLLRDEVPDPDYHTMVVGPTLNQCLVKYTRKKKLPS
Series [4] relates to Leishmania donovani. Nature of the series: GSK_TCAKS: pIC50 Leishmania donovani Imaging: Amastigotes/Macrophages. Assay plates (384-well) were prepared by adding 250nL of compound to each well. For single shot assay, the final compound concentration was 5 uM. […] Automated image analysis was performed with a script developed on Acapella High Content Imaging and Analysis Software (PerkinElmer). Output: Average number of amastigotes per macrophage cell were reported for each well. It counts as functional, organism-based, Homo sapiens. As to conditions: THP-1.

Series [5] deals with Leishmania donovani. In words: GSK_TCAKS: pIC50 Leishmania donovani Imaging: THP-1 Host Macrophages. Assay plates (384-well) were prepared by adding 250nL of compound to each well. For single shot assay, the final compound concentration was 5 uM. […] Automated image analysis was performed with a script developed on Acapella High Content Imaging and Analysis Software (PerkinElmer). Output: THP-1 cell count were reported for each well. It counts as functional, organism-based, Homo sapiens.

Series [6] relates to Trypanosoma brucei brucei. In words: GSK_TCAKS: pIC50 Trypanosoma brucei viability assay using luminiscence. Assay plates (1536-well) were prepared. T. brucei cultures were harvested and counted in a CASY cell counter. A parasite suspension was prepared at a final concentration of 5 * 10^4 cells/mL in complete HMI9 medium and 6uL was dispensed to all wells containing compounds using a Multidrop Combi dispenser. 6uL of HMI9 media with 0.4% DMSO were dispensed to control columns. Plates were incubated for 24 h at 37C, 5% CO2 then tempered for 10 min at room temperature. ATP content was quantified by adding 4 uL of CellTiter-Glo Reagent (Promega) according to the manufacturer's instructions. Luminescence was measured using a ViewLux. It counts as functional, organism-based. As to conditions: Lister 427, CASY.

The subject of series [7] is Trypanosoma cruzi. Nature of the series: (§1) GSK_TCAKS: pIC50 Trypanosoma cruzi Imaging: Infected Cells. […] Cells were then washed once with PBS before infection. T. cruzi trypomastigotes, collected at days 5 to 8 after infection from LLC-MK2 parasite infected cultures, were allowed to swim out for 4h at 37C from a centrifuged pellet (2,500 rpm/10 min/room temperature). Trypomastigotes were then collected and counted in a CASY Cell Counter. Trypomastigotes, in supplemented DMEM, were added to H9c2 cultures in a multiplicity of infection of 1 and incubated for 18 h. Cells were washed once with PBS before incubation of the infected H9c2 monolayer with trypsin (Life-Technologies) to detach cells from the flask. Cells were counted in a CASY Cell Counter using a 150 um capillary and their density set at 5 * 10^4 cells per mL in supplemented assay DMEM. Infected H9c2 were dispensed into 384-well poly-lysine coated assay plates at 50uL per well using a Multidrop Combi dispenser. After seeding them, the plates were incubated at 37C, 5% CO2 for 72h. Cultures were then fixed and stained by addition of 50 uL of a solution containing 8% formaldehyde and 4 uM DRAQ5 DNA dye (BioStatus, UK) per well. […] Five images were collected per well for reliable statistical analysis. Automated image analysis was performed with a script developed on Acapella High Content Imaging and Analysis Software (PerkinElmer). Output: percentage of infected cells per well as a second infection marker. It counts as functional, organism-based, Rattus norvegicus. As to conditions: H9c2, 4 h.

Series [8] relates to Trypanosoma cruzi. The description is as §1, with “H2C9” for “Trypanosoma cruzi”, “H9c2 Host Cardiomyocytes.” for “Infected Cells.”, “Number” for “percentage”, “H9c2 Host Cardiomyocytes nuclei to determine drug-related cytotoxicity.” for “infected cells per well as a second infection marker.”. It counts as functional, organism-based, Rattus norvegicus. As to conditions: H9c2, 4 h.

Series [9] in a line: GSK_TCAKS: pIC50 HepG2 human cell line viability assay using luminiscence. […] Seeding density was checked to ensure that new mono-layers were not more than 50% confluent at the time of harvesting. Cell suspension was added to 500 mL of the same medium at a final density of 1.2 * 10^5 cells/mL. This cell suspension was dispensed (25 uL, 3000 cells per well) into 384-well clear-bottom plates using a Multidrop Combi dispenser. Prior to addition of the cell suspension, the screening compounds (250 nL) were pre-dispensed into the plates with an Echo liquid handler. Plates were incubated for 48 h at 37C, 5% CO2. After incubation, plates equilibrated at room temperature for 30 min before proceeding to develop the luminescent signal. The signal developer, CellTiter-Glo Reagent, was allowed to equilibrate at room temperature for 30 min and added to the plates (25uL per well) using a Multidrop Combi dispenser. Plates were left for 10 min at room temperature for stabilization and then read using a ViewLux. It counts as toxicity, cell-based.

For series [10], the system named is Trypanosoma cruzi. In words: GSK_TCAKS: pIC50 Trypanosoma cruzi Imaging: Amastigotes/Cell. […] Cells were then washed once with PBS before infection. T. cruzi trypomastigotes, collected at days 5 to 8 after infection from LLC-MK2 parasite infected cultures, were allowed to swim out for 4h at 37C from a centrifuged pellet (2,500 rpm/10 min/room temperature). Trypomastigotes were then collected and counted in a CASY Cell Counter. Trypomastigotes, in supplemented DMEM, were added to H9c2 cultures in a multiplicity of infection of 1 and incubated for 18 h. Cells were washed once with PBS before incubation of the infected H9c2 monolayer with trypsin (Life-Technologies) to detach cells from the flask. Cells were counted in a CASY Cell Counter using a 150 um capillary and their density set at 5 * 10^4 cells per mL in supplemented assay DMEM. Infected H9c2 were dispensed into 384-well poly-lysine coated assay plates at 50uL per well using a Multidrop Combi dispenser. After seeding them, the plates were incubated at 37C, 5% CO2 for 72h. Cultures were then fixed and stained by addition of 50 uL of a solution containing 8% formaldehyde and 4 uM DRAQ5 DNA dye (BioStatus, UK) per well. […] Five images were collected per well for reliable statistical analysis. Automated image analysis was performed with a script developed on Acapella High Content Imaging and Analysis Software (PerkinElmer). Output: number of amastigotes per cell as infection level measurement. It counts as functional, organism-based, Rattus norvegicus. As to conditions: H9c2, 4 h.

Series [11] concerns Trypanosoma brucei brucei. In words: GSK_TCAKS: pIC50 Trypanosoma brucei viability assay using fluorescence intensity. Assay plates (1536-well) were prepared by dispensing 25nL of compound solution per well using an Echo acoustic dispenser (Labcyte). As to conditions: Lister 427, 2 h. It counts as functional, organism-based.
For series [12], the system named is Leishmania donovani. Nature of the series: GSK_TCAKS: pIC50 Leishmania donovani Imaging: Infected Macrophages. Assay plates (384-well) were prepared by adding 250nL of compound to each well. For single shot assay, the final compound concentration was 5 uM. […] Automated image analysis was performed with a script developed on Acapella High Content Imaging and Analysis Software (PerkinElmer). Output: Percent of infected macrophage cells were reported for each well. It counts as functional, organism-based, Homo sapiens. As to conditions: THP-1.

On to `CN(C)S(=O)(=O)c1cccc(CSc2nnc(-c3ccc4c(c3)OCO4)o2)c1`, for which the IC50 in [1] was 0.501 µM; in series [2] it was 1 µM; in series [3] it was 12.6 µM; in series [4] it was 0.631 µM; in series [5], greater than 50.1 µM; in [6], greater than 39.8 µM. Also, the IC50 is 0.1 µM in series [7]; greater than 50.1 µM in series [8]; 0.0501 µM in series [10]; 31.6 µM in series [11]; 2 µM in series [12]. The compound also gave an IC50 at 48 h in [9] greater than 100 µM.

Consider `N#CN1CC[C@@H](NC(=O)Nc2ccccc2Oc2ccccc2)C1`, for which the 50% inhibitory concentration (IC50) was 5.01 µM in series [1]; 3.16 µM in series [2]; greater than 100 µM in series [3]; 3.98 µM in series [4]; 25.1 µM in series [5]; 7.94 µM in series [6]. In addition, the IC50 in series [7] is 3.98 µM; in [8], 20 µM; in [10], 5.01 µM; in series [11], 1 µM; in series [12], 5.01 µM. For the same compound, the IC50 at 48 h in series [9] was 39.8 µM.

With `CCc1ccc2nc(NC(=O)c3cc(N4CCOCC4)ccn3)sc2c1`, the 50% inhibitory concentration (IC50) was 2.51 µM in series [1]; 2 µM in [2]; greater than 100 µM in series [3]; 0.794 µM in [4]; 10 µM in series [5]; 1 µM in series [6]. The IC50 is 0.794 µM in [7]; 39.8 µM in series [8]; 0.501 µM in series [10]; 0.501 µM in series [11]; 1.26 µM in series [12]. This compound also showed an IC50 at 48 h in series [9] greater than 100 µM.

Consider `Nc1nonc1-c1nc2cncc(C(=O)N3CC[C@H](N)C3)c2n1CC1CC1`, for which the IC50 in [1] is greater than 50.1 µM; in series [2], greater than 50.1 µM; in series [3], 12.6 µM; in series [4], 39.8 µM; in series [5] it was 12.6 µM; in [6], 0.794 µM. Moreover, the IC50 in series [7] was greater than 50.1 µM; in series [8] it was greater than 50.1 µM; in series [10] it was 12.6 µM; in [11], 0.631 µM; in [12], 20 µM. This compound showed an IC50 at 48 h in series [9] greater than 100 µM.

For the compound `Cn1ccnc1CN1CCc2[nH]cnc2C1c1ccccc1OCc1ccccc1` (configuration not stated), the IC50 in series [1] is 39.8 µM; in series [2], greater than 50.1 µM; in [3], 7.94 µM; in [4], greater than 50.1 µM; in [5] it was greater than 50.1 µM; in series [6] it was 0.501 µM. The IC50 in series [7] is greater than 50.1 µM; in series [8] it was greater than 50.1 µM; in series [10] it was greater than 50.1 µM; in [11], 0.398 µM; in [12], greater than 50.1 µM. In series [9], this compound had a concentration for half-maximal inhibition (IC50) at 48 h greater than 100 µM.

For `CN1CCC(N(C)c2nccc(N3CCN(C(=O)c4cccc(-c5cccnc5)c4)CC3)n2)CC1`, the IC50 was 0.316 µM in series [1]; greater than 50.1 µM in series [2]; 1.58 µM in series [3]; 1.26 µM in series [4]; 7.94 µM in series [5]; 1 µM in series [6]. For the same compound, the IC50 in series [7] was 1.26 µM; in [8] it was 7.94 µM; in series [10], 1 µM; in series [11] it was 0.794 µM; in series [12], 1.26 µM. Half-maximal inhibition in series [9] (IC50 at 48 h) required 39.8 µM.
